Experimental data as given in publication PMC12078602 (Nature Communications, 2025).

Key:
Glk (BT2493) = target: T1, Glk (BT2493) (Bacteroides thetaiotaomicron, UniProt Q8A4V4); assay: glucokinase activity in vitro, coupled NADH oxidation, […] nm; assay type: biochemical; settings: 50 mM Tris pH 7.4, 3 mM MgCl2, 10 mM NH4Cl; data only in supplement
T1 sequence (Q8A4V4 1-326): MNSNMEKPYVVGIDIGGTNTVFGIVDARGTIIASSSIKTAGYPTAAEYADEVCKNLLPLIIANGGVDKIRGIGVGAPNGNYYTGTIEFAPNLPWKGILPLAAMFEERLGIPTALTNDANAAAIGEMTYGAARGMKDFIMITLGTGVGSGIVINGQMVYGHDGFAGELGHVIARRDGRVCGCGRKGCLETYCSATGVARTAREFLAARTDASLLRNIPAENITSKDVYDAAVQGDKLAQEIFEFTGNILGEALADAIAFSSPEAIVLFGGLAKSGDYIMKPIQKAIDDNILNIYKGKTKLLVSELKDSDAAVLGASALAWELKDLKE

[1] = test system: Cur (Bacteroides thetaiotaomicron VPI-5482); assay: EMSA

| Molecule | glucokinase activity in vitro, coupled NADH oxidation, 340 nm (Glk (BT2493)) | Kd [1] [pmol] |
| --- | --- | --- |
| OC[C@H]1OC(O)[C@H](O)[C@@H](O)[C@@H]1O (some centres unmarked) [glucose] | We determined that Glk exhibits glucokinase activity in vitro (Supplementary Fig. 4a) |  |
| fusA2 promoter probe (wild-type) |  | 4.97 |
